Reference: patent US20260262643A1, “HERBICIDAL BENZOXAZINES” (FMC CORPORATION, priority 2022, published 2026)

Key:
corn [1] = assay: Test A preemergence; assay type: in vivo, Zea mays
Excerpt: (§1) Seeds of plant species selected from barnyardgrass (Echinochloa crusgalli), blackgrass (Alopecurus myosuroides), corn (Zea mays), foxtail, giant (giant foxtail, Setaria faberi), goosegrass (Eleusine indica), kochia (Bassia scoparia), oat, wild (wild oat, Avena fatua), pigweed, palmer (palmer amaranth, palmer pigweed, Amaranthus palmeri), Pigweed, Redroot (redroot pigweed, Amaranthus retroflexus), ragweed (common ragweed, Ambrosia artemisiifolia), ryegrass, Italian (italian ryegrass, Lolium multiflorum), soybean (Glycine max), and wheat (Triticum aestivum) were planted into a blend of loam soil and sand and treated preemergence with a directed soil spray using test chemicals formulated in a non-phytotoxic solvent mixture which included a surfactant. At the same time, plants selected from these crops and weed species and also galium (catchweed bedstraw, Galium aparine) and horseweed (Erigeron canadensis) were planted in pots containing the same blend of loam soil and sand and treated with postemergence applications of test chemicals formulated in the same manner. Plants ranged in height from 2 to 10 cm and were in the one- to two-leaf stage for the postemergence treatment. Treated plants and untreated controls were maintained in a greenhouse for 10 days, after which time all treated plants were compared to untreated controls and visually evaluated for injury. Plant response ratings, summarized in Table A, are based on a 0 to 100 scale where 0 is no effect and 100 is complete control. A dash (-) response means no test result.

foxtail, giant [2] = assay: Test A preemergence; assay type: in vivo, Setaria faberi
Excerpt: as §1

goosegrass [3] = assay: Test A preemergence; assay type: in vivo, Eleusine indica
Excerpt: as §1

kochia [4] = assay: Test A preemergence; assay type: in vivo, Bassia scoparia
Excerpt: as §1

pigweed, palmer [5] = assay: Test A preemergence; assay type: in vivo, Amaranthus palmeri
Excerpt: as §1

ragweed [6] = assay: Test A preemergence; assay type: in vivo, Ambrosia artemisiifolia
Excerpt: as §1

ryegrass, Italian [7] = assay: Test A preemergence; assay type: in vivo, Lolium multiflorum
Excerpt: as §1

soybean [8] = assay: Test A preemergence; assay type: in vivo, Glycine max
Excerpt: as §1

wheat [9] = assay: Test A preemergence; assay type: in vivo, Triticum aestivum
Excerpt: as §1

blackgrass [10] = assay: Test A postemergence; assay type: in vivo, Alopecurus myosuroides
Excerpt: as §1

corn [11] = assay: Test A postemergence; assay type: in vivo, Zea mays; settings: postemergence, 10 days, visual injury, 0 to 100 scale (0 no effect, 100 complete control)
Excerpt: as §1

foxtail, giant [12] = assay: Test A postemergence; assay type: in vivo, Setaria faberi
Excerpt: as §1

goosegrass [13] = assay: Test A postemergence; assay type: in vivo, Eleusine indica
Excerpt: as §1

kochia [14] = assay: Test A postemergence; assay type: in vivo, Bassia scoparia
Excerpt: as §1

oat, wild = assay: Test A postemergence; assay type: in vivo, Avena fatua; settings: 500 g ai/ha, postemergence, 10 days, visual injury, 0 to 100 scale (0 no effect, 100 complete control)
Excerpt: as §1

pigweed, palmer [15] = assay: Test A postemergence; assay type: in vivo, Amaranthus palmeri
Excerpt: as §1

ragweed [16] = assay: Test A postemergence; assay type: in vivo, Ambrosia artemisiifolia
Excerpt: as §1

ryegrass, Italian [17] = assay: Test A postemergence; assay type: in vivo, Lolium multiflorum
Excerpt: as §1

soybean [18] = assay: Test A postemergence; assay type: in vivo, Glycine max; settings: 500 g ai/ha, postemergence, 10 days, visual injury, 0 to 100 scale (0 no effect, 100 complete control)
Excerpt: as §1

wheat [19] = assay: Test A postemergence; assay type: in vivo, Triticum aestivum; settings: 500 g ai/ha, postemergence, 10 days, visual injury, 0 to 100 scale (0 no effect, 100 complete control)
Excerpt: as §1

galium = assay: Test A postemergence; assay type: in vivo, Galium aparine
Excerpt: as §1

horseweed = assay: Test A postemergence; assay type: in vivo, Erigeron canadensis
Excerpt: as §1

barnyardgrass = assay: Test B flooded paddy test; assay type: in vivo, Echinochloa crus-galli; settings: 250 g ai/ha, Flood, 13 days, 0 to 100 scale (0 no effect, 100 complete control)
Protocol: (§2) Plant species in the flooded paddy test selected from barnyardgrass (Echinochloa crus-galli), ducksalad (Heteranthera limosa), rice (Oryza sativa), and sedge, umbrella (small-flower umbrella sedge, Cyperus difformis) were grown to the 2-leaf stage for testing. At time of treatment, test pots were flooded to 3 cm above the soil surface, treated by application of test compounds directly to the paddy water, and then maintained at that water depth for the duration of the test. Treated plants and controls were maintained in a greenhouse for 13 days, after which time all species were compared to controls and visually evaluated. Plant response ratings, summarized in Table B, are based on a scale of 0 to 100 where 0 is no effect and 100 is complete control. A dash (-) response means no test result.

ducksalad = assay: Test B flooded paddy test; assay type: in vivo, Heteranthera limosa; settings: 250 g ai/ha, Flood, 13 days, 0 to 100 scale (0 no effect, 100 complete control)
Protocol: as §2

rice = assay: Test B flooded paddy test; assay type: in vivo, Oryza sativa; settings: 250 g ai/ha, Flood, 13 days, 0 to 100 scale (0 no effect, 100 complete control)
Protocol: as §2

sedge, umbrella = assay: Test B flooded paddy test; assay type: in vivo, Cyperus difformis; settings: 250 g ai/ha, Flood, 13 days, 0 to 100 scale (0 no effect, 100 complete control)
Protocol: as §2

blackgrass [20] = assay: Test A preemergence; assay type: in vivo, Alopecurus myosuroides; settings: 1000 g ai/ha, 0 to 100 scale (0 no effect, 100 complete control), 10 days
Excerpt: as §1

[21] = 125 g ai/ha, visual injury after 10 days, 0 to 100 scale, 0 is no effect, 100 is complete control
[22] = 500 g ai/ha, 0 to 100 scale (0 no effect, 100 complete control), 10 days
[23] = 125 g ai/ha, postemergence, 10 days, visual injury, 0 to 100 scale (0 no effect, 100 complete control)
[24] = 500 g ai/ha, postemergence, 10 days, visual injury, 0 to 100 scale (0 no effect, 100 complete control)
[25] = 1000 g ai/ha, 0 to 100 scale (0 no effect, 100 complete control), 10 days
[26] = 1000 g ai/ha, Postemergence, 0 to 100 scale

CCc1ncn(-c2ccc(C)c(C(=O)N3C[C@H](C)Oc4c(Cl)cccc43)c2)n1 [Compound 75]
0: Plant response rating, Ragweed (ragweed [6]; [21])
30: Plant response rating, Wheat (wheat [9]; [21])
90: Plant response rating, Kochia (kochia [4]; [22]) | Plant response rating, Blackgrass (blackgrass [10]; [23]) | Plant response rating, Blackgrass (blackgrass [10]; 500 g ai/ha, Postemergence, 0 to 100 scale) | Plant response rating, Corn (corn [11]; 500 g ai/ha) | Plant response rating, Foxtail, Giant (foxtail, giant [12]; [23]) | Plant response rating, Goosegrass (goosegrass [13]; [24]) | Plant response rating, Kochia (kochia [14]; [23]) | Plant response rating, Kochia (kochia [14]; [24]) | Plant response rating, Oat, Wild (oat, wild)
80: Plant response rating, Kochia (kochia [4]; [21]) | Plant response rating, Soybean (soybean [8]; [21]) | Plant response rating, Wheat (wheat [9]; [22]) | Plant response rating, Ragweed (ragweed [16]; [24])
100: Plant response rating, Foxtail, Giant (foxtail, giant [2]; [21]) | Plant response rating, Foxtail, Giant (foxtail, giant [2]; [22]) | Plant response rating, Goosegrass (goosegrass [3]; [21]) | Plant response rating, Goosegrass (goosegrass [3]; [22]) | Plant response rating, Pigweed, Palmer (pigweed, palmer [5]; [21]) | Plant response rating, Pigweed, Palmer (pigweed, palmer [5]; [22]) | Plant response rating, Ragweed (ragweed [6]; [22]) | Plant response rating, Ryegrass, Italian (ryegrass, Italian [7]; [21]) | Plant response rating, Ryegrass, Italian (ryegrass, Italian [7]; [22]) | Plant response rating, Soybean (soybean [8]; [22]) | Plant response rating, Foxtail, Giant (foxtail, giant [12]; [24]) | Plant response rating, Pigweed, Palmer (pigweed, palmer [15]; [24]) | Plant response rating, Ryegrass, Italian (ryegrass, Italian [17]; [24]) | Plant response rating, Soybean (soybean [18]) | Plant response rating, Galium (galium; [23]) | Plant response rating, Galium (galium; [24])
40: Plant response rating, Corn (corn [1]; [21])
10: Plant response rating, Rice (rice)
60: Plant response rating, Corn (corn [11]; 125 g ai/ha) | Plant response rating, Wheat (wheat [19])
98: Plant response rating, Sedge, Umbrella (sedge, umbrella)
70: Plant response rating, Goosegrass (goosegrass [13]; [23]) | Plant response rating, Horseweed (horseweed; [24]) | Plant response rating, Ducksalad (ducksalad)
50: Plant response rating, Corn (corn [1]; [22]) | Plant response rating, Horseweed (horseweed; [23]) | Plant response rating, Barnyardgrass (barnyardgrass)

O=C(c1ccnc(-n2cncn2)c1)N1CC(C(F)(F)F)Oc2c(Cl)cccc21 (stereo not shown) [Compound 34]
50: Plant response rating, Goosegrass (goosegrass [13]; [26]) | Plant response rating, Ragweed (ragweed [16]; [26])
0: Plant response rating, Horseweed (horseweed; [26]) | Plant response rating, Barnyardgrass (barnyardgrass) | Plant response rating, Ducksalad (ducksalad) | Plant response rating, Rice (rice) | Plant response rating, Sedge, Umbrella (sedge, umbrella)
90: Plant response rating, Kochia (kochia [4]; [25]) | Plant response rating, Ryegrass, Italian (ryegrass, Italian [7]; [25]) | Plant response rating, Ryegrass, Italian (ryegrass, Italian [17]; [26])
80: Plant response rating, Blackgrass (blackgrass [20]) | Plant response rating, Pigweed, Palmer (pigweed, palmer [15]; [26])
70: Plant response rating, Blackgrass (blackgrass [10]; [26])
100: Plant response rating, Foxtail, Giant (foxtail, giant [2]; [25]) | Plant response rating, Goosegrass (goosegrass [3]; [25]) | Plant response rating, Pigweed, Palmer (pigweed, palmer [5]; [25]) | Plant response rating, Foxtail, Giant (foxtail, giant [12]; [26]) | Plant response rating, Kochia (kochia [14]; [26]) | Plant response rating, Galium (galium; [26])
20: Plant response rating, Ragweed (ragweed [6]; [25])

C[C@H]1CN(C(=O)c2cccc(-c3cnn(C)c3)c2)c2cccc(Cl)c2O1 [Compound 119, [(2S)-8-Chloro-2,3-dihydro-2-methyl-4H-1,4-benzoxazin-4-yl][3-(1-methyl-1H-pyrazol-4-yl)phenyl]methanone]
50%: pest or weed control at 1000 g/ha (ryegrass, Italian [7]; Lolium multiflorum, pre-emergence, 240 h, 1000 g ai/ha, 0 to 100 scale (0 no effect, 100 complete control), 10 days, read-out: Plant response rating, Ryegrass, Italian)
70%: pest or weed control at 1000 g/ha (blackgrass [20]; Alopecurus myosuroides, pre-emergence, 240 h, read-out: Plant response rating, Blackgrass) | pest or weed control at 1000 g/ha (blackgrass [10]; Alopecurus myosuroides, post-emergence, 240 h, 1000 g ai/ha, Postemergence, 0 to 100 scale, read-out: Plant response rating, Blackgrass) | pest or weed control at 1000 g/ha (goosegrass [13]; Eleusine indica, post-emergence, 240 h, 1000 g ai/ha, Postemergence, 0 to 100 scale, read-out: Plant response rating, Goosegrass) | pest or weed control at 1000 g/ha (ragweed [16]; Ambrosia artemisiifolia, post-emergence, 240 h, 1000 g ai/ha, Postemergence, 0 to 100 scale, read-out: Plant response rating, Ragweed)
100%: pest or weed control at 1000 g/ha (foxtail, giant [2]; Setaria faberi, pre-emergence, 240 h, 1000 g ai/ha, 0 to 100 scale (0 no effect, 100 complete control), 10 days, read-out: Plant response rating, Foxtail, Giant)
20%: pest or weed control at 1000 g/ha (ryegrass, Italian [17]; Lolium multiflorum, post-emergence, 240 h, 1000 g ai/ha, Postemergence, 0 to 100 scale, read-out: Plant response rating, Ryegrass, Italian)
10%: pest or weed control at 1000 g/ha (kochia [4]; Bassia scoparia, pre-emergence, 240 h, 1000 g ai/ha, 0 to 100 scale (0 no effect, 100 complete control), 10 days, read-out: Plant response rating, Kochia)
80%: pest or weed control at 1000 g/ha (pigweed, palmer [15]; Amaranthus palmeri, post-emergence, 240 h, 1000 g ai/ha, Postemergence, 0 to 100 scale, read-out: Plant response rating, Pigweed, Palmer)
0%: pest or weed control at 1000 g/ha (horseweed; Erigeron canadensis, post-emergence, 240 h, 1000 g ai/ha, Postemergence, 0 to 100 scale, read-out: Plant response rating, Horseweed) | pest or weed control at 250 g/ha (barnyardgrass; Echinochloa crus-galli, 312 h, read-out: Plant response rating, Barnyardgrass) | pest or weed control at 250 g/ha (ducksalad; Heteranthera limosa, 312 h, read-out: Plant response rating, Ducksalad) | plant injury at 250 g/ha (rice; Oryza sativa, 312 h, read-out: Plant response rating, Rice) | pest or weed control at 250 g/ha (sedge, umbrella; Cyperus difformis, 312 h, read-out: Plant response rating, Sedge, Umbrella)
90%: pest or weed control at 1000 g/ha (goosegrass [3]; Eleusine indica, pre-emergence, 240 h, 1000 g ai/ha, 0 to 100 scale (0 no effect, 100 complete control), 10 days, read-out: Plant response rating, Goosegrass) | pest or weed control at 1000 g/ha (pigweed, palmer [5]; Amaranthus palmeri, pre-emergence, 240 h, 1000 g ai/ha, 0 to 100 scale (0 no effect, 100 complete control), 10 days, read-out: Plant response rating, Pigweed, Palmer) | pest or weed control at 1000 g/ha (ragweed [6]; Ambrosia artemisiifolia, pre-emergence, 240 h, 1000 g ai/ha, 0 to 100 scale (0 no effect, 100 complete control), 10 days, read-out: Plant response rating, Ragweed) | pest or weed control at 1000 g/ha (foxtail, giant [12]; Setaria faberi, post-emergence, 240 h, 1000 g ai/ha, Postemergence, 0 to 100 scale, read-out: Plant response rating, Foxtail, Giant) | pest or weed control at 1000 g/ha (kochia [14]; Bassia scoparia, post-emergence, 240 h, 1000 g ai/ha, Postemergence, 0 to 100 scale, read-out: Plant response rating, Kochia) | pest or weed control at 1000 g/ha (galium; Galium, post-emergence, 240 h, 1000 g ai/ha, Postemergence, 0 to 100 scale, read-out: Plant response rating, Galium)
